# Data reported in publication PMC9234962, “Optimization of Peptide Linker-Based Fluorescent Ligands for the Histamine H1 Receptor” (Journal of Medicinal Chemistry, 2022).
# Like-named read-outs stand apart in the source and are kept apart here. Square brackets hold non-standard residues; d marks the D form. Peptide text beside a SMILES is read from it. * marks the point of attachment. X1 = O=C(COc1ccc(/C=C/C2=[N+]3C(=Cc4ccc(-c5cccs5)n4[B-]3(F)F)C=C2)cc1)*; Propanoyl(3-Pip(4-O-2-BnPh)) = O=C(CCN1CCC(Oc2ccccc2Cc2ccccc2)CC1)*; BODIPY(FL) = CC1=CC(C)=[N+]2C1=Cc1ccc(CCC(=O)*)n1[B-]2(F)F; X2 = O=C(CCC1=[N+]2C(=Cc3ccc(-c4cccs4)n3[B-]2(F)F)C=C1)*; βAla = NCCC(=O)O
# What was measured:
# Nluc-H3R = biological target: T1, Nluc-H3R (Homo sapiens, UniProt Q9Y5N1); test: NanoBRET saturation binding assay on Nluc-H3R HEK293T cell homogenates; details: for binding at H3R in saturation assay (in words): concentrations of up to 1 μM
# T1 construct: expressed in transfected cells; host or cells: HEK293T, transient transfection; sonicated cell homogenates
# Protocol: (§1) HEK293T cells were transiently transfected with 2.5 μg of cDNA encoding Nluc-H3R or Nluc-H4R and 2.5 μg of empty pcDEF3 vector using the polyethylenimine method as described previously in Mocking et al.[23] Two days after transfection, cells were collected in phosphate-buffered saline (PBS) and centrifuged at 1900g for 10 min and the cell pellet was stored at −20°C until the day of experiment. The pellet was resuspended in HBSS buffer, and cells were disrupted using a Branson sonifier 250 (Boom bv., Meppel, the Netherlands) prior to use in a NanoBRET binding assay.
# For all NanoBRET binding experiments, 10 μM NanoGlo substrate (Promega) was added to each well after the incubation period and fluorescence and luminescence emissions were measured after 5 min.
# (§2) Total and non-specific saturation binding curves from NanoBRET saturation binding assay were fitted simultaneously using eq 1: [drawing 4] 1 where Bmax is the maximal specific binding, [B] is the concentration of fluorescent ligand in nM, KD is the equilibrium dissociation constant in nM, M is the slope of the non-specific component, and C is the intercept with the Y axis.
# Nluc-H4R [1] = biological target: T2, Nluc-H4R (Homo sapiens, UniProt Q9H3N8); test: NanoBRET saturation binding assay on Nluc-H4R HEK293T cell homogenates; details: for Kd / Nluc-H4R pKD: cell homogenates, highest concentration 1 μM for 31a, 31k; for Nluc-H4R pKD: mean ± SEM, three experiments; for binding at H4R in saturation assay (in words): concentrations of up to 1 μM
# T2 construct: expressed in transfected cells; host or cells: HEK293T, transient transfection; sonicated cell homogenates
# Protocol: as §1
# For cell membrane NanoBRET saturation binding experiments, cell homogenates expressing the Nluc-H3R or Nluc-H4R were incubated with the required concentrations of fluorescent ligand in the absence and presence of 10 μM clobenpropit in HBSS for 2 h at 25 °C. For all NanoBRET binding experiments, 10 μM NanoGlo substrate (Promega) was added to each well after the incubation period and fluorescence and luminescence emissions were measured after 5 min.
# as §2
# Nluc-H4R [2] = biological target: T2, Nluc-H4R; design: method as in PMID 30249614; details: literature value, cited from earlier work
# H1R = details: cited from earlier work
# human H1R = biological target: T3, human H1R (Homo sapiens, UniProt P35367); test: Ca2+ mobilization assay on human H1R-expressing CHO cells; type: cell-based; details: Gaddum equation, shift in histamine EC25 with 1 μM antagonist
# T3 construct: expressed in transfected cells; host or cells: CHO cells
# Protocol: CHO cells expressing H1R were grown to confluence in black-walled, clear-bottom 96-well plates. On the day of the experiment, media were replaced with 100 μL of HBSS containing […], 2.3 μM Fluo-4AM (Invitrogen), 0.023% Pluronic F-127, 0.5 mM Brilliant Black BN, and 1 μM required fluorescent ligand and the plates incubated for 1 h at 37 °C in the dark. The plates were then placed in the multi-well fluorometric imaging plate reader FlexStation3 (Molecular Devices, Sunnyvale, CA) and HBSS only or HBSS containing the required concentration of histamine was added after 15 s. Fluo-4 fluorescence was measured at 520 nm (excitation at 485 nm) every 1.52 s for 200 s. For each well, the peak maximum–minimum–maximum change in fluorescence value was taken and plotted against concentration of histamine to give a dose–response curve.
# Estimated affinity values (pKB) were calculated from the shift in agonist concentration–response curves in the presence of the fluorescent antagonists using the Gaddum equation (7): [drawing 10] 7 where DR (dose ratio) is the ratio of the agonist concentration required to stimulate an identical response in the presence and absence of antagonist, [B]. DR was determined from the EC25 value as there was a decrease in observed maximal efficacy of histamine in the presence of all 10 fluorescent antagonists.
# Nluc-H1R [3] = biological target: T4, Nluc-H1R (Homo sapiens, UniProt P35367); test: NanoBRET saturation binding assay on Nluc-H1R expressing HEK293T cells; design: expressed in transfected cells; details: saturation binding curves, whole HEK293T cells; for pKD: non-specific with 10 μM mepyramine, mean ± SEM
# Text: as §2
# Nluc-H1R [4] = biological target: T4, Nluc-H1R; test: NanoBRET association kinetics assay on Nluc-H1R HEK293T cells; type: binding; design: expressed in transfected cells
# Protocol: For whole cell NanoBRET association kinetic experiments, 10 μM furimazine was added to each well and incubated at room temperature in the dark for 15 min to allow for stabilization of the luminescence signal. The required concentration of fluorescent ligand in the presence or absence of 10 μM of doxepin was added simultaneously, and the plates were read immediately with each well being read once per min for 90 min.
# For the NanoBRET association kinetic experiments, the BRET ratio was determined for each concentration of fluorescent ligand at each time point in the presence or absence of 10 μM of doxepin. Specific binding was calculated by subtracting non-specific binding from total binding.
# [5] = mean ± SEM, four experiments, read-out: pKB (converted)
# T4 sequence (P35367 whole entry): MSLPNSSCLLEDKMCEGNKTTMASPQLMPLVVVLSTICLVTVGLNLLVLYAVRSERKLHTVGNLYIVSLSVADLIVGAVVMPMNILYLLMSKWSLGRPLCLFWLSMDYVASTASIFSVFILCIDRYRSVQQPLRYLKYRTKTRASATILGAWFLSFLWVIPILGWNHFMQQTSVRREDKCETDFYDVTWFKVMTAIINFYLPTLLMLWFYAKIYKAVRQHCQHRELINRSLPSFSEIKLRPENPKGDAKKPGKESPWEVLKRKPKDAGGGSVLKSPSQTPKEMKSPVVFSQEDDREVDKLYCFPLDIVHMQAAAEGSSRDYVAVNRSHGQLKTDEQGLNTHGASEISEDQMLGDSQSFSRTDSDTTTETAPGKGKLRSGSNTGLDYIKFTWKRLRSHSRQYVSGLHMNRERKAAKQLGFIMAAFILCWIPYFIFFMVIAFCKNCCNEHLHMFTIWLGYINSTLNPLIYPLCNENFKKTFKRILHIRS
# T3 sequence (P35367 whole entry): as above
# T1 sequence (Q9Y5N1 whole entry): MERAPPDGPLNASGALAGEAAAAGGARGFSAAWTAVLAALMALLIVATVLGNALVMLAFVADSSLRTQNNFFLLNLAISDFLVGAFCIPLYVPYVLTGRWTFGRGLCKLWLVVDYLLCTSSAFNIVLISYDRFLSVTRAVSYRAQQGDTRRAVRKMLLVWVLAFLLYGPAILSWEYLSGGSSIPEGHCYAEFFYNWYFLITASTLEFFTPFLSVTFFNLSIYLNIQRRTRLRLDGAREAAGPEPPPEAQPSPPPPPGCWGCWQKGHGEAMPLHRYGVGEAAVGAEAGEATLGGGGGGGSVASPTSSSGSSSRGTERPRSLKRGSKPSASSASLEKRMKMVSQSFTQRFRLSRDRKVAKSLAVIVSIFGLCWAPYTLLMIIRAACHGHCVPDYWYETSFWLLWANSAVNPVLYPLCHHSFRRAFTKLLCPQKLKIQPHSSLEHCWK
# T2 sequence (Q9H3N8 whole entry): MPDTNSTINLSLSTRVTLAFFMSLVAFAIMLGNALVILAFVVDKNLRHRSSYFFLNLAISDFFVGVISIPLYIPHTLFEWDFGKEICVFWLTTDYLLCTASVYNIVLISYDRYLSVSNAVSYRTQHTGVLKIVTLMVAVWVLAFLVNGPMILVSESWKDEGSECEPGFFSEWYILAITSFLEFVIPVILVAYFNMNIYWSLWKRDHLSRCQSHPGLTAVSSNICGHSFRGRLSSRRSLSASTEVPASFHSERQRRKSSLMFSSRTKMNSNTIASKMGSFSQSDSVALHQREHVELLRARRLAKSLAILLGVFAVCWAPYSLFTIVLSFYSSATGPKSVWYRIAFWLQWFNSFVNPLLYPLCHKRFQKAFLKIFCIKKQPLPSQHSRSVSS
smiles,measurement,setting,value
"NC(=NCc1ccc(Cl)cc1)SCCCc1cnc[nH]1 [CA200843, reference compound]",binding at H3R in saturation assay (in words),Nluc-H3R,"concentration-dependent, saturable and reversible binding"
same,Kd,Nluc-H4R [1],0.031 µM
same,Nluc-H4R pKD,Nluc-H4R [1],7.51 ± 0.04
same,binding at H4R in saturation assay (in words),Nluc-H4R [1],"concentration-dependent, saturable and reversible binding"
same,pKD at Nluc-H4R reported in literature,Nluc-H4R [2],7.15
same,Kd,Nluc-H4R [2]; read-out: binding affinity at Nluc-H4R reported in literature,0.07 µM
C[C@@H](NC(=O)CCN1CCC(Oc2ccccc2Cc2ccccc2)CC1)C(=O)N[C@H](C)C(=O)N[C@H](C)C(=O)NCCNC(=O)CCCCCNC(=O)COc1ccc(/C=C/C2=[N+]3C(=Cc4ccc(-c5cccs5)n4[B-]3(F)F)C=C2)cc1 [Compound 1],Radioligand binding assay (hH1R) pKi,H1R,8.4 ± 0.1
"C[C@H](NC(=O)[C@H](C)NC(=O)[C@H](Cc1ccccc1)NC(=O)CCN1CCC(Oc2ccccc2Cc2ccccc2)CC1)C(=O)NCCC(=O)N[C@@H](CCCCNC(=O)COc1ccc(/C=C/C2=[N+]3C(=Cc4ccc(-c5cccs5)n4[B-]3(F)F)C=C2)cc1)C(N)=O [Compound 31k, (S)-2-((6S,9S,12S)-12-Benzyl-16-(4-(2-benzylphenoxy)piperidin-1-yl)-6,9-dimethyl-5,8,11,14-tetraoxo-4,7,10,13-tetraazahexadecanamido)-6-(2-(4-((E)-2-(5,5-difluoro-7-(thiophen-2-yl)-5H-5λ^4,6λ^4-dipyrr-olo[1,2-c:2’,1’-f][1,3,2]diazaborinin-3-yl)vinyl)phenoxy)acetamido)hexanamide] ({Propanoyl(3-Pip(4-O-2-BnPh))}-FAA[βAla]K(X1)-NH2)",Kb,human H1R; [5],0.00257 µM
same,Kb,human H1R; read-out: KB (converted),0.003 µM
same,Kd,"Nluc-H3R; cell homogenates, highest concentration 1 μM for 31a, 31k",< 1 µM
same,Nluc-H3R pKD,"Nluc-H3R; cell homogenates, highest concentration 1 μM for 31a, 31k, mean ± SEM, three experiments",< 6
same,binding at H3R in saturation assay (in words),Nluc-H3R,little to no binding
same,selectivity for H1R over H3R and H4R,"Nluc-H3R; from NanoBRET saturation binding at H1R, H3R, H4R",approximately 100 fold
same,Kd,Nluc-H4R [1],< 1 µM
same,Nluc-H4R pKD,Nluc-H4R [1],< 6
same,binding at H4R in saturation assay (in words),Nluc-H4R [1],little to no binding
same,Kd,Nluc-H1R [3],0.012 µM
same,pKD,Nluc-H1R [3],7.92 ± 0.08
same,Kd,"Nluc-H1R [4]; kinetic pKD, mean ± SEM, read-out: pKD determined from kon and koff (converted)",0.0229 µM
same,residence time,Nluc-H1R [4]; read-out: mean residence times (MRT),> 60 min
same,kon,"Nluc-H1R [4]; real-time NanoBRET, room temperature, 90 min, mean ± SEM",11400 M⁻¹ s⁻¹
same,"MRT (mean residence time, 1/koff)","Nluc-H1R [4]; real-time NanoBRET, mean ± SEM",1.31 ± 0.24 h
same,koff,"Nluc-H1R [4]; real-time NanoBRET, mean ± SEM",0.000233 s⁻¹
"C[C@H](NC(=O)[C@H](C)NC(=O)[C@H](Cc1ccccc1)NC(=O)CCN1CCC(Oc2ccccc2Cc2ccccc2)CC1)C(=O)NCCC(=O)N[C@@H](CCCCNC(=O)CCC1=[N+]2C(=Cc3ccc(-c4cccs4)n3[B-]2(F)F)C=C1)C(N)=O [Compound 39c, (S)-2-((6S,9S,12S)-12-Benzyl-16-(4-(2-benzylphenoxy)piperidin-1-yl)-6,9-dimethyl-5,8,11,14-tetraoxo-4,7,10,13-tetraazahexadecanamido)-6-(3-(5,5-difluoro-7-(thiophen-2-yl)-5H-5λ^4,6λ^4-dipyrrolo[1,2-c:2’,1’-f][1,3,2]diazaborinin-3-yl)propanamido)hexanamide] ({Propanoyl(3-Pip(4-O-2-BnPh))}-FAA[βAla]K(X2)-NH2)",Kb,human H1R; read-out: KB (converted),0.363 µM
same,Kd,Nluc-H1R [3],0.724 µM
same,pKD,Nluc-H1R [3],6.14 ± 0.06
"Cc1cc(C)n2c1C=C1C=CC(CCC(=O)NCCCC[C@H](NC(=O)CCNC(=O)[C@H](C)NC(=O)[C@H](C)NC(=O)[C@H](Cc3ccccc3)NC(=O)CCN3CCC(Oc4ccccc4Cc4ccccc4)CC3)C(N)=O)=[N+]1[B-]2(F)F [Compound 39d, (S)-2-((6S,9S,12S)-12-Benzyl-16-(4-(2-benzylphenoxy)piperidin-1-yl)-6,9-dimethyl-5,8,11,14-tetraoxo-4,7,10,13-tetraazahexadecanamido)-6-(3-(5,5-difluoro-7,9-dimethyl-5H-4λ^4,5λ^4-dipyrrolo[1,2-c:2’,1’-f][1,3,2]diazaborinin-3-yl)propan-amido)hexanamide] ({Propanoyl(3-Pip(4-O-2-BnPh))}-FAA[βAla]K(BODIPY(FL))-NH2)",Kb,human H1R; [5],0.0347 µM
same,Kd,Nluc-H1R [3],1.45 µM
same,pKD,Nluc-H1R [3],5.84 ± 0.13
"C[C@H](NC(=O)[C@H](C)NC(=O)[C@H](Cc1ccccc1)NC(=O)CCN1CCC(Oc2ccccc2Cc2ccccc2)CC1)C(=O)NCCC(=O)N[C@@H](CCCCNC(=O)CCCCC[N+]1=C(/C=C/C=C/C=C2/N(C)c3ccc(S(=O)(=O)[O-])cc3C2(C)C)C(C)(C)c2cc(S(=O)(=O)O)ccc21)C(N)=O [Compound 39f, 1-((5S,8S,11S,18S)-5-Benzyl-1-(4-(2-benzylphenoxy)piperidin-1-yl)-18-carbamoyl-8,11-dimethyl-3,6,9,12,16,24-hexaoxo-4,7,10,13,17,23-hexaazanonacosan-29-yl)-3,3-dimethyl-2-((1E,3E)-5-((E)-1,3,3-trimethyl-5-sulfonatoindolin-2-ylidene)penta-1,3-dien-1-yl)-3H-indol-1-ium-5-sulfonate]",Kb,human H1R; read-out: KB (converted),0.813 µM
same,Kd,Nluc-H1R [3],2.19 µM
same,pKD,Nluc-H1R [3],5.66 ± 0.06
"c1ccc(Cc2ccccc2OC2CCNCC2)cc1 [VUF13816, 4-(2-Benzylphenoxy)piperidine]",radioligand binding assay pKi,H1R; H1R,8.20
